In patent US20110091570A1, “Compositions and Devices for Antisepsis and Anticoagulation” (priority 2008, published 2011):
“And” between values parts separate entries of the source, which are not always exact repeats. Equal values may be shown once.

Key:
Balb/c mice = experiment: Injection of 1% NCT solution into the tail vein of mice (tolerability); format: in vivo, mouse
Protocol: In this model, injection of 1% aqueous NCT solution was tolerated at a volume that equals approximately 10% of the total blood volume of a mouse. A 1% solution contains 55 mmol/L NCT, which is more than 1000 times greater than any physiologic concentration produced by human leukocytes.
Balb/c mice were injected into the tail vein with a sterile aqueous solution of 1% NCT. Four mice were injected with 0.05 ml, four mice with 0.1 ml, one mouse with 0.2 ml, and one mouse with 0.3 ml, respectively, of the NCT solution.
In this Example, injection of 1% aqueous NCT solution was tolerated in the mouse model at a volume that equals approximately 10% of the total blood volume of a mouse.

Streptococcus pyogenes = experiment: Bactericidal activity of NCT without and with heparin (CFU counts); format: cell-based
Protocol: FIG. 3 presents a plot of bactericidal activity of 1% NCT without and with 125 IE/mL heparin against Streptococcus pyogenes at pH 7.1 and 37° C. Mean values±standard error of the mean of three independent experiments. P>0.05 between NCT without and NCT with heparin.
NCT was dissolved in 0.1 M phosphate buffer containing either 125 IE/mL heparin or no heparin. The final NCT concentration was 1%. Various bacterial species were grown in tryptic soy broth overnight, were washed twice in saline and then suspended in the NCT and NCT/heparin solutions. The species were Staphylococcus aureus (ATCC 25923), Escherichia coli (ATCC 11229), Streptococcus pyogenes, Staphylococcus epidermidis, Pseudomonas aeruginosa, Proteus mirabilis, and methicillin-resistant Staphylococcus aureus. Controls were performed with the foregoing bacterial species suspended in 0.1 M phosphate buffer without additives and in 0.1 M phosphate buffer containing 125 IE/mL heparin. All of the solutions were incubated at 37° C. and pH 7.1. After 1, 3, 5, 8, and 10 minutes, aliquots of 100 μL were removed and diluted 10-fold or 100-fold in 0.6% sodium thiosulfate solution to inactivate the NCT. Aliquots (50 μL) of these dilutions were spread on tryptic soy agar plates. The plates were incubated at 37° C. and colony forming units of bacteria were counted after 24 and 48 hours. […]

[1] = tested on: Staphylococcus epidermidis; experiment: as above; format: cell-based
Proteus mirabilis = experiment: as above; format: cell-based
D-Dimer = D-Dimer in citrate blood; format: biochemical, human; settings: Example 7; for D-Dimer: individual subjects 1-11; for D-Dimer, mean value: mean of 11 subjects
Protocol: (§1) Whole blood was taken from 11 volunteers and enriched with trisodium citrate (0.3 mL of a 0.106 molar solution per 3 mL whole blood) (S-Monovette®, Sarstedt, Nümbrecht, Germany). Commercial coagulation tests (as described in Example 6) were performed with the following samples: […]

citrate blood = experiment: Routine coagulation tests, overall anticoagulant effect; format: biochemical, human
Protocol: Whole blood was taken from volunteers and enriched with trisodium citrate (0.3 mL of a 0.106 molar solution per 3 mL whole blood) (S-Monovette®, Sarstedt, Nümbrecht, Germany). Routine coagulation tests were performed on the following samples:
The following commercial coagulation tests were performed according to the prescription of the manufacturer: prothrombin time (PT) was determined using Thromborel® S test (Dade Behring GmbH, Marburg, Germany); activated partial thromboplastin time (aPTT) was determined using Pathromtin* SL test (Dade Behring GmbH, Marburg, Germany); and thrombin time (TT) was determined using BC Thrombin Reagent test (Dade Behring GmbH, Marburg, Germany).
Whole blood was taken from a single volunteer and enriched with trisodium citrate (0.3 mL of a 0.106 molar solution per 3 mL whole blood) (S-Monovette®, Sarstedt, Nümbrecht, Germany). Portions of 1.8 mL citrate blood were mixed with 0.2 mL NCT in 0.9% saline. The following final (after dilution in blood) NCT concentrations were tested separately: 1% (55 mM); 0.5% (27.5 mM); 0.25% (13.75 mM); 0.1% (5.5 mM); 0.05% (2.75 mM); 0.025% (1.375 mM); and 0.01% (0.55 mM). A control without NCT was performed in parallel. The following commercial coagulation tests were performed according to the prescription of the manufacturer: prothrombin time (PT) was determined using Thromborel® S test (Dade Behring GmbH, Marburg, Germany), activated partial thromboplastin time (aPTT) was determined using Pathromtin* SL test (Dade Behring GmbH, Marburg, Germany); thrombin time (TT) was determined using BC Thrombin Reagent test (Dade Behring GmbH, Marburg, Germany); and fibrinogen was determined using Multifibren* U test (Dade Behring GmbH, Marburg, Germany).
as §1

Swiss mice = experiment: Intraperitoneal injection in Swiss mice; format: in vivo; settings: 1% NCT i.p., a further study
Human Blood = settings: Stief et al. [Ref 27]; cited from earlier work
human eyes = human eyes [Ref. 13]; cited from earlier work
external otitis = settings: human external otitis [Ref 15]; cited from earlier work
[2] = Balb/c mice, sterile aqueous 1% NCT, 0.05-0.3 ml i.v.
[3] = 0.1% NCT, virtually identical experiments
[4] = 1% NCT, 125 IE/mL heparin, pH 7.1, 37° C., 1-10 min

With O=S(=O)(O)CCNCl [NCT, N-chlorotaurine] the tolerated injection volume (Balb/c mice; 1% aqueous NCT solution i.v.) was “approximately 10 % of the total blood volume of a mouse”, the “changes of behaviour after tail vein injection” value (Balb/c mice; [2]) was “no changes of behaviour” and the “survival after tail vein injection” value (Balb/c mice; [2]) was “all mice survived”. The “influence of heparin on the killing of bacteria” value (“influence of heparin” below) (Streptococcus pyogenes; [3]) was “no statistically significant influence of heparin on the killing of bacteria”, the “killing activity of NCT with vs without heparin” value (Streptococcus pyogenes; [4]) was “no difference in the killing activity” and the “influence of heparin” value [1, 3] was “no statistically significant influence of heparin on the killing of bacteria”. For the same compound, the “killing activity of NCT with vs without heparin” value [1, 4] was “no difference in the killing activity”, the “influence of heparin” value (Proteus mirabilis; [3]) was “no statistically significant influence of heparin on the killing of bacteria” and the “killing activity of NCT with vs without heparin” value (Proteus mirabilis; [4]) was “no difference in the killing activity”. The D-Dimer (D-Dimer; 0.01% NCT) was 209 µg/L and 195 µg/L and 340 µg/L and 143 µg/L and 50 µg/L and 174 µg/L and 241 µg/L and 155 µg/L and 132 µg/L and 191 µg/L and 149 µg/L, the “D-Dimer, mean value” (D-Dimer; 0.01% NCT) was 179.9 µg/L and the D-Dimer (D-Dimer; 0.025% NCT) was 200 µg/L and 179 µg/L and 316 µg/L and 122 µg/L and 50 µg/L and 153 µg/L and 227 µg/L and 143 µg/L and 126 µg/L and 172 µg/L and 132 µg/L. The “D-Dimer, mean value” (D-Dimer; 0.025% NCT) was 165.5 µg/L, the “effect on the anticoagulant activity of heparin” value (citrate blood; Example 5, 1% NCT final concentration) was “does not counteract the anticoagulant activity of heparin” and the “anticoagulant activity of NCT alone” value (citrate blood; Example 5, 1% NCT without heparin) was “has anticoagulant activity”. For the same compound, the anticoagulant effect (citrate blood; NCT 0.55 mmol/L) was “significant anticoagulant effect”, the anticoagulant effect (citrate blood; NCT 1.375 mmol/L) was “strong effect” and the tolerated intraperitoneal injection (Swiss mice) was “tolerated up to one mL 1% NCT”. The “concentration with anticoagulant effect (not below)” value (Human Blood) was 2 to 3 mmol/L, the “tolerability in topical and localized applications” value (human eyes) was “relatively safe and well-tolerated” and the “efficacy versus standard medication” value (external otitis) was “more effective than a standard medication”.
